In PubChem BioAssay AID1963983 (Molecular Pharmacology Branch, DTP, NCI, 2024):

System: 186277-243-T-J2-PDC multi-cell spheroid viability
Test: Anticancer human tumor 186277-243-T-J2-PDC patient-derived colon adenocarcinoma cell line growth inhibition [PI3K]
Conditions: for IC50: curve of first compound; for viability, T/C: stronger effect = lower value
Source text: Combinatorial screen of targeted agents with the PI3K inhibitors inavolisib, alpelisib, duvelisib, and copanlisib in multi-cell type tumor spheroids
A high-throughput screen of multi-cell type tumor spheroids was designed to identify active combinations of targeted small molecules and PI3K pathway inhibitors. Complex spheroids include a stromal component modeled by human endothelial cells (HUVEC) and fibroblasts modeled by human mesenchymal stem cells (MSCs). The concentration ranges selected for each drug and investigational agent were based upon clinically achievable concentrations if the clinical Cmax of the agent was known.
Compounds. The drugs and investigational agents: inavolisib (NSC800729), alpelisib (NSC765974), duvelisib (NSC772469), copanlisib (NSC816437), ipatasertib (NSC767898), afuresertib (NSC778305), talazoparib (NSC767125), sapanisertib (NSC764658), selumetinib (NSC741078), tovorafenib (DAY101, NSC766906), vemurafenib (NSC761431), ravoxertinib (NSC781343), sotorasib (NSC818433), MRTX1133 (NSC 836407), abemaciclib (NSC 768073), palbociclib (NSC758247), venetoclax (NSC 766270), SY5609 (NSC837396), enzalutamide (NSC755605), and darolutamide (NSC825331), were obtained from the National Cancer Institute (NCI) Developmental Therapeutics Program Chemical Repository. The FDA-approved anticancer drug set is available from the NCI Developmental Therapeutics Program. […] The stock solutions were prepared in dimethyl sulfoxide (DMSO, Sigma-Aldrich, St. Louis, MO, cat. D2650) at 800-fold the tested concentration and stored at -70 degrees C prior to their use. All drugs and investigational agents were tested over a range starting from a high concentration at or near the clinical Cmax and decreasing in half-log increments. If the clinical Cmax for an agent had not been determined, the highest concentration tested was 10 microM.
Cell Culture. All cells were maintained in an incubator at 37 degrees C and 5% CO2 with 95% humidity. The PDC lines were cultured according to standard operating procedures established by the NCI PDMR (https://pdmr.cancer.gov/sops/default.htm). All PDCs were thawed and cultured in Matrigel-coated flasks prepared with a working solution of 1X Ham's F-12 nutrient mix, without supplementation (Invitrogen, Waltham, MA, cat. 11765054), 100 U/mL penicillin-streptomycin (Invitrogen, cat. 15140122), and 2.5% Matrigel (Corning Inc., Corning, NY, cat. 354248) for the first three passages. The 354836-022-R-J1-PDC, 475296-252-R-J1-PDC, and 997726-040-R-J2-PDC lines were cultured in 6A media, which includes advanced DMEM/F-12 (Thermo Fisher Scientific, cat. 12634028), 10 mM HEPES (Thermo Fisher Scientific, cat. 15630080), 1X GlutaMAX supplement (Thermo Fisher Scientific, cat. 35050061), 0.1 mg/mL primocin (InvivoGen, San Diego, CA, cat. ant-pm-2), 10% defined fetal bovine serum, heat inactivated (HyClone Laboratories Inc., Logan, UT, cat. SH30070.03HI), 50% L-WRN conditioned media (ATCC, cat. CRL-3276), 1.25 mM N-Acetyl-L-cysteine (Sigma-Aldrich, cat. A9165), 10 mM nicotinamide (Sigma-Aldrich, cat. N0636), 1X B-27 supplement (Thermo Fisher Scientific, cat. 17504044), 1X N-2 supplement (Thermo Fisher Scientific, cat. 17502048), and 10 microM Y-27632 dihydrochloride (Tocris Bioscience, Bristol, United Kingdom, cat. 1254). The 624824-186-R-J2-PDC line was cultured in 6C/Colon 1B media, which includes all 6A media components plus 50 ng/mL human EGF recombinant protein (Thermo Fisher Scientific, cat. PHG0311). […]

[1] = second compound 0.00316 µM, first compound 0.0316 µM
[2] = second compound 0.00316 µM, first compound 0.1 µM
[3] = second compound 0.01 µM, first compound 0.0316 µM
[4] = second compound 0.01 µM, first compound 0.1 µM
[5] = second compound 0.0316 µM, first compound 0.0316 µM
[6] = second compound 0.0316 µM, first compound 0.1 µM
[7] = second compound 0.1 µM, first compound 0.0316 µM
[8] = second compound 0.1 µM, first compound 0.1 µM
[9] = second compound 0.316 µM, first compound 0.0316 µM
[10] = second compound 0.316 µM, first compound 0.1 µM
[11] = second compound 1 µM, first compound 0.0316 µM
[12] = second compound 1 µM, first compound 0.1 µM
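Also: spheroids exposed to compounds for seven days before viability reading.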
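For viability, T/C in this document: 100% = DMSO vehicle control viability.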

Question: How did the IC50 (second compound 0.00316 µM) turn out when Cn1ncnc1[C@H]1c2n[nH]c(=O)c3cc(F)cc(c23)N[C@@H]1c1ccc(F)cc1 + CC(Nc1ccc2c(c1)OCCn1cc(N3C(=O)OCC3C(F)F)nc1-2)C(N)=O was run?
Answer: The IC50 was over 100 nM.

Question: And the IC50 (second compound 0.01 µM)?
Answer: The IC50 was over 100 nM.

Question: And the IC50 (second compound 0.0316 µM)?
Answer: The IC50 was over 100 nM.

Question: What about the IC50 (second compound 0.1 µM) of the same compound?
Answer: The IC50 was over 100 nM.

Question: What about the IC50 (second compound 0.316 µM) of the same compound?
Answer: The IC50 was 46.8 nM.

Question: And the IC50 (second compound 1 µM)?
Answer: The IC50 was 0.592 nM.

Question: What about the viability, T/C (second compound 0.00316 µM, first compound 0.000316 µM) of the same compound?
Answer: The viability, T/C was 93.7%.

Question: And the viability, T/C (second compound 0.00316 µM, first compound 0.001 µM)?
Answer: Its viability, T/C is 85.8%.

Question: What about the viability, T/C (second compound 0.00316 µM, first compound 0.00316 µM) of the same compound?
Answer: Its viability, T/C is 105%.

Question: And the viability, T/C (second compound 0.00316 µM, first compound 0.01 µM)?
Answer: Its viability, T/C is 91%.

Question: What about the viability, T/C [1] of the same compound?
Answer: Its viability, T/C is 101%.

Question: And the viability, T/C [2]?
Answer: The viability, T/C was 94.9%.

Question: What about the viability, T/C (second compound 0.01 µM, first compound 0.000316 µM) of the same compound?
Answer: The viability, T/C was 101%.

Question: And the viability, T/C (second compound 0.01 µM, first compound 0.001 µM)?
Answer: The viability, T/C was 102%.

Question: What about the viability, T/C (second compound 0.01 µM, first compound 0.00316 µM) of the same compound?
Answer: Its viability, T/C is 104%.

Question: And the viability, T/C (second compound 0.01 µM, first compound 0.01 µM)?
Answer: The viability, T/C was 102%.

Question: And the viability, T/C [3]?
Answer: The viability, T/C was 102%.

Question: And the viability, T/C [4]?
Answer: Its viability, T/C is 98.6%.

Question: What about the viability, T/C (second compound 0.0316 µM, first compound 0.000316 µM) of the same compound?
Answer: The viability, T/C was 117%.

Question: And the viability, T/C (second compound 0.0316 µM, first compound 0.001 µM)?
Answer: The viability, T/C was 107%.

Question: And the viability, T/C (second compound 0.0316 µM, first compound 0.00316 µM)?
Answer: Its viability, T/C is 101%.

Question: And the viability, T/C (second compound 0.0316 µM, first compound 0.01 µM)?
Answer: Its viability, T/C is 97.9%.

Question: And the viability, T/C [5]?
Answer: Its viability, T/C is 101%.

Question: And the viability, T/C [6]?
Answer: The viability, T/C was 89%.

Question: What about the viability, T/C (second compound 0.1 µM, first compound 0.000316 µM) of the same compound?
Answer: Its viability, T/C is 102%.

Question: And the viability, T/C (second compound 0.1 µM, first compound 0.001 µM)?
Answer: Its viability, T/C is 105%.

Question: And the viability, T/C (second compound 0.1 µM, first compound 0.00316 µM)?
Answer: Its viability, T/C is 112%.

Question: What about the viability, T/C (second compound 0.1 µM, first compound 0.01 µM) of the same compound?
Answer: Its viability, T/C is 99.5%.

Question: What about the viability, T/C [7] of the same compound?
Answer: The viability, T/C was 93.5%.

Question: What about the viability, T/C [8] of the same compound?
Answer: Its viability, T/C is 69.4%.

Question: What about the viability, T/C (second compound 0.316 µM, first compound 0.000316 µM) of the same compound?
Answer: Its viability, T/C is 80.6%.

Question: What about the viability, T/C (second compound 0.316 µM, first compound 0.001 µM) of the same compound?
Answer: The viability, T/C was 84.4%.

Question: What about the viability, T/C (second compound 0.316 µM, first compound 0.00316 µM) of the same compound?
Answer: Its viability, T/C is 65%.

Question: And the viability, T/C (second compound 0.316 µM, first compound 0.01 µM)?
Answer: The viability, T/C was 64.8%.

Question: And the viability, T/C [9]?
Answer: Its viability, T/C is 53.7%.

Question: And the viability, T/C [10]?
Answer: Its viability, T/C is 43.3%.

Question: What about the viability, T/C (second compound 1 µM, first compound 0.000316 µM) of the same compound?
Answer: The viability, T/C was 52.2%.

Question: What about the viability, T/C (second compound 1 µM, first compound 0.001 µM) of the same compound?
Answer: Its viability, T/C is 46.6%.

Question: What about the viability, T/C (second compound 1 µM, first compound 0.00316 µM) of the same compound?
Answer: The viability, T/C was 46.9%.

Question: And the viability, T/C (second compound 1 µM, first compound 0.01 µM)?
Answer: Its viability, T/C is 39.4%.

Question: What about the viability, T/C [11] of the same compound?
Answer: Its viability, T/C is 31.9%.

Question: What about the viability, T/C [12] of the same compound?
Answer: Its viability, T/C is 26.6%.

Question: What does the source list for C[C@@H](NC(=O)c1ncnc(N)c1Cl)c1ncc(C(=O)Nc2cc(C(F)(F)F)c(Cl)cn2)s1 + COc1c(OCCCN2CCOCC2)ccc2c3n(c(=NC(=O)c4cnc(N)nc4)nc12)CCN3?
Answer: IC50 (second compound 0.00316 µM): > 10000 nM; IC50 (second compound 0.01 µM): 8020 nM; IC50 (second compound 0.0316 µM): 1640 nM; IC50 (second compound 0.1 µM): < 31.6 nM; IC50 (second compound 0.316 µM): < 31.6 nM; IC50 (second compound 1 µM): < 31.6 nM; viability, T/C [1]: 97.9%; viability, T/C [2]: 94%; viability, T/C (second compound 0.00316 µM, first compound 0.316 µM): 107%; viability, T/C (second compound 0.00316 µM, first compound 1 µM): 90.4%; viability, T/C (second compound 0.00316 µM, first compound 3.16 µM): 108%; viability, T/C (second compound 0.00316 µM, first compound 10 µM): 67.7%; viability, T/C [3]: 128%; viability, T/C [4]: 102%; viability, T/C (second compound 0.01 µM, first compound 0.316 µM): 113%; viability, T/C (second compound 0.01 µM, first compound 1 µM): 96.9%; viability, T/C (second compound 0.01 µM, first compound 3.16 µM): 98.4%; viability, T/C (second compound 0.01 µM, first compound 10 µM): 38.7%; viability, T/C [5]: 87.7%; viability, T/C [6]: 82%; viability, T/C (second compound 0.0316 µM, first compound 0.316 µM): 81.6%; viability, T/C (second compound 0.0316 µM, first compound 1 µM): 68.5%; viability, T/C (second compound 0.0316 µM, first compound 3.16 µM): 25.9%; viability, T/C (second compound 0.0316 µM, first compound 10 µM): 5.51%; viability, T/C [7]: 37.9%; viability, T/C [8]: 30.7%; viability, T/C (second compound 0.1 µM, first compound 0.316 µM): 25.7%; viability, T/C (second compound 0.1 µM, first compound 1 µM): 13.2%; viability, T/C (second compound 0.1 µM, first compound 3.16 µM): 7.38%; viability, T/C (second compound 0.1 µM, first compound 10 µM): 4.45%; viability, T/C [9]: 7.07%; viability, T/C [10]: 7.19%; viability, T/C (second compound 0.316 µM, first compound 0.316 µM): 7.95%; viability, T/C (second compound 0.316 µM, first compound 1 µM): 6.31%; viability, T/C (second compound 0.316 µM, first compound 3.16 µM): 1.83%; viability, T/C (second compound 0.316 µM, first compound 10 µM): 1.23%; viability, T/C [11]: 4.1%; viability, T/C [12]: 2.89%; viability, T/C (second compound 1 µM, first compound 0.316 µM): 2.41%; viability, T/C (second compound 1 µM, first compound 1 µM): 2.48%; viability, T/C (second compound 1 µM, first compound 3.16 µM): 1.54%; viability, T/C (second compound 1 µM, first compound 10 µM): 0.23%
